Test results as given in patent US6737383B1, “Herbicidal oxadiazolidines” (priority 1999, dated 2004).

Key:
[1] = test system: blackgrass; assay: Test B pre/postemergence blackgrass; type: in vivo, Alopecurus myosuroides
Outline: (§1)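 Test chemicals in a non-phytotoxic solvent mixture with surfactant were sprayed preemergence onto planted seeds and postemergence onto plants 2 to 18 cm tall (1- to 4-leaf stage). After twelve to sixteen days in a greenhouse, injury was visually rated against untreated controls from 0 (no effect) to 10 (complete control).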

[2] = test system: velvetleaf; assay: Test B pre/postemergence velvetleaf; type: in vivo, Abutilon theophrasti
Outline: as §1

[3] = test system: bedstraw; assay: Test B pre/postemergence bedstraw; type: in vivo, Galium aparine; conditions: Preemergence; for Bedstraw plant response rating: scale 0 to 10, 0 is no effect, 10 is complete control
Outline: as §1

[4] = test system: soybean; assay: Test B pre/postemergence soybean; type: in vivo, Glycine max
Outline: as §1

[5] = Postemergence, Rate 62 g/ha, scale of 0 to 10, 0 is no effect, 10 is complete control
[6] = Postemergence, Rate 125 g/ha, scale 0 to 10, 0 is no effect, 10 is complete control
[7] = Postemergence, Rate 500 g/ha, scale 0 to 10, 0 is no effect, 10 is complete control
[8] = Preemergence, Rate 62 g/ha, scale of 0 to 10 where 0 is no effect and 10 is complete control
[9] = Preemergence, Rate 125 g/ha, scale 0 to 10, 0 is no effect, 10 is complete control
[10] = Preemergence, Rate 500 g/ha, scale of 0 to 10 where 0 is no effect and 10 is complete control
[11] = Rate 250 g/ha, Postemergence, scale of 0 to 10 where 0 is no effect and 10 is complete control
[12] = Postemergence, Rate 250 g/ha, scale 0 to 10, 0 is no effect, 10 is complete control
[13] = Postemergence, Rate 500 g/ha, scale of 0 to 10 where 0 is no effect and 10 is complete control
[14] = Preemergence, Rate 62 g/ha, scale 0 to 10 (0 no effect, 10 complete control)
[15] = Preemergence, Rate 125 g/ha, scale of 0 to 10 where 0 is no effect and 10 is complete control
[16] = Preemergence, Rate 250 g/ha, scale of 0 to 10 where 0 is no effect and 10 is complete control
[17] = Preemergence, Rate 500 g/ha, scale 0 to 10, 0 is no effect, 10 is complete control
[18] = Rate 62 g/ha, Postemergence, scale of 0 to 10 where 0 is no effect and 10 is complete control
[19] = Rate 125 g/ha, Postemergence, scale 0 to 10, 0 is no effect, 10 is complete control
[20] = Preemergence, Rate 250 g/ha, scale 0 to 10, 0 is no effect, 10 is complete control
[21] = Rate 500 g/ha, Postemergence, scale 0 to 10, 0 no effect, 10 complete control
[22] = Postemergence, Rate 62 g/ha, scale 0 to 10, 0 is no effect, 10 is complete control
[23] = Postemergence, Rate 125 g/ha, scale of 0 to 10 where 0 is no effect and 10 is complete control
[24] = Preemergence, Rate 250 g/ha, scale 0 to 10 (0 no effect, 10 complete control)
[25] = Rate 500 g/ha, Postemergence, scale 0 to 10, 0 is no effect, 10 is complete control

SMILES: CC(C)N(C(=O)n1oc(=O)n(CC2CCC2)c1=O)c1ccc(F)cc1F [Compound 521]
- Blackgrass plant response rating [1, 5]: 2
- Blackgrass plant response rating [1, 6]: 2
- Plant response rating, Blackgrass [1, 7]: 9
- Plant response rating, Blackgrass [1, 8]: 0
- Blackgrass plant response rating [1, 9]: 0
- Blackgrass plant response rating (0 to 10 scale) ([1]; Preemergence, Rate 250 g/ha): 0
- Blackgrass plant response rating [1, 10]: 3
- Plant response rating, Blackgrass [1, 11]: 7
- Velvetleaf plant response rating [2, 5]: 0
- Velvetleaf plant response rating [2, 6]: 0
- Plant response rating, Velvetleaf [2, 7]: 3
- Plant response rating, Velvetleaf [2, 8]: 0
- Velvetleaf plant response rating [2, 9]: 0
- Velvetleaf plant response rating (0 to 10 scale) ([2]; Preemergence, Rate 250 g/ha): 2
- Velvetleaf plant response rating [2, 10]: 3
- Plant response rating, Velvetleaf [2, 11]: 2
- Plant response rating, Bedstraw ([3]; Rate 62 g/ha, scale of 0 to 10 where 0 is no effect and 10 is complete control): 0
- Bedstraw plant response rating ([3]; Rate 125 g/ha): 0
- Bedstraw plant response rating (0 to 10 scale) ([3]; Rate 250 g/ha): 0
- Bedstraw plant response rating ([3]; Rate 500 g/ha): 0
- Soybean plant response rating [4, 5]: 4
- Soybean plant response rating [4, 6]: 4
- Plant response rating, Soybean [4, 7]: 5
- Plant response rating, Soybean [4, 8]: 0
- Soybean plant response rating [4, 9]: 0
- Soybean plant response rating (0 to 10 scale) ([4]; Preemergence, Rate 250 g/ha): 0
- Soybean plant response rating [4, 10]: 0
- Plant response rating, Soybean [4, 11]: 5

SMILES: CC(C)N(C(=O)n1oc(=O)n(CCl)c1=O)c1ccccc1 [Compound 423]
- Plant response rating, Blackgrass [1, 12]: 0
- Blackgrass plant response rating [1, 13]: 2
- Plant response rating, Blackgrass [1, 14]: 0
- Plant response rating, Blackgrass [1, 15]: 0
- Blackgrass plant response rating [1, 16]: 0
- Blackgrass plant response rating [1, 17]: 0
- Blackgrass plant response rating [1, 18]: 0
- Blackgrass plant response rating [1, 19]: 0
- Plant response rating, Velvetleaf [2, 12]: 0
- Velvetleaf plant response rating [2, 13]: 0
- Plant response rating, Velvetleaf [2, 14]: 0
- Plant response rating, Velvetleaf [2, 15]: 0
- Velvetleaf plant response rating [2, 20]: 0
- Velvetleaf plant response rating [2, 17]: 0
- Velvetleaf plant response rating [2, 19]: 0
- Plant response rating, Soybean [4, 12]: 2
- Soybean plant response rating [4, 13]: 2
- Plant response rating, Soybean [4, 14]: 0
- Plant response rating, Soybean [4, 15]: 0
- Soybean plant response rating [4, 20]: 0
- Soybean plant response rating [4, 17]: 0
- Soybean plant response rating [4, 19]: 2

SMILES: CC(C)N(C(=O)n1oc(=O)n(CCl)c1=O)c1ccc(F)cc1 [Compound 376]
- Plant response rating, Blackgrass [1, 6]: 0
- Plant response rating, Blackgrass [1, 12]: 0
- Plant response rating, Blackgrass [1, 14]: 0
- Blackgrass plant response rating (0 to 10 scale) ([1]; Preemergence, Rate 125 g/ha): 0
- Blackgrass plant response rating [1, 16]: 0
- Blackgrass plant response rating [1, 10]: 0
- Blackgrass plant response rating [1, 18]: 0
- Plant response rating, Blackgrass [1, 21]: 0
- Plant response rating, Velvetleaf [2, 6]: 0
- Plant response rating, Velvetleaf [2, 12]: 0
- Plant response rating, Velvetleaf [2, 14]: 0
- Velvetleaf plant response rating (0 to 10 scale) ([2]; Preemergence, Rate 125 g/ha): 0
- Velvetleaf plant response rating [2, 16]: 0
- Velvetleaf plant response rating [2, 10]: 0
- Velvetleaf plant response rating [2, 18]: 0
- Plant response rating, Velvetleaf [2, 21]: 0
- Plant response rating, Soybean [4, 6]: 0
- Plant response rating, Soybean [4, 12]: 0
- Plant response rating, Soybean [4, 14]: 0
- Soybean plant response rating (0 to 10 scale) ([4]; Preemergence, Rate 125 g/ha): 0
- Soybean plant response rating [4, 16]: 0
- Soybean plant response rating [4, 10]: 0
- Soybean plant response rating [4, 18]: 0
- Plant response rating, Soybean [4, 21]: 0

SMILES: Cc1nnsc1Cn1c(=O)on(C(=O)N(c2ccc(F)cc2)C(C)C)c1=O [Compound 380]
- Plant response rating, Blackgrass [1, 6]: 0
- Plant response rating, Blackgrass [1, 12]: 0
- Plant response rating, Blackgrass [1, 14]: 0
- Blackgrass plant response rating (0 to 10 scale) ([1]; Preemergence, Rate 125 g/ha): 0
- Blackgrass plant response rating [1, 16]: 0
- Blackgrass plant response rating [1, 10]: 2
- Blackgrass plant response rating [1, 18]: 0
- Plant response rating, Blackgrass [1, 21]: 0
- Plant response rating, Velvetleaf [2, 6]: 0
- Plant response rating, Velvetleaf [2, 12]: 0
- Plant response rating, Velvetleaf [2, 14]: 0
- Velvetleaf plant response rating (0 to 10 scale) ([2]; Preemergence, Rate 125 g/ha): 0
- Velvetleaf plant response rating [2, 16]: 0
- Velvetleaf plant response rating [2, 10]: 0
- Velvetleaf plant response rating [2, 18]: 0
- Plant response rating, Velvetleaf [2, 21]: 3
- Plant response rating, Soybean [4, 6]: 1
- Plant response rating, Soybean [4, 12]: 1
- Plant response rating, Soybean [4, 14]: 0
- Soybean plant response rating (0 to 10 scale) ([4]; Preemergence, Rate 125 g/ha): 0
- Soybean plant response rating [4, 16]: 0
- Soybean plant response rating [4, 10]: 0
- Soybean plant response rating [4, 18]: 0
- Plant response rating, Soybean [4, 21]: 1

SMILES: CC(C)N(C(=O)n1oc(=O)n(C(C)C)c1=O)c1ccncc1 [Compound 663]
- Plant response rating, Blackgrass [1, 22]: 0
- Blackgrass plant response rating [1, 23]: 0
- Blackgrass plant response rating ([1]; Postemergence, Rate 250 g/ha, scale of 0 to 10, 0 is no effect, 10 is complete control): 0
- Blackgrass plant response rating [1, 8]: 0
- Blackgrass plant response rating [1, 15]: 0
- Plant response rating, Blackgrass [1, 24]: 0
- Plant response rating, Blackgrass [1, 10]: 0
- Blackgrass plant response rating [1, 25]: 2
- Plant response rating, Velvetleaf [2, 22]: 0
- Velvetleaf plant response rating [2, 23]: 0
- Velvetleaf plant response rating [2, 8]: 0
- Velvetleaf plant response rating [2, 15]: 0
- Plant response rating, Velvetleaf [2, 24]: 0
- Plant response rating, Velvetleaf [2, 10]: 3
- Velvetleaf plant response rating [2, 25]: 2
- Soybean plant response rating [4, 23]: 0
- Soybean plant response rating [4, 8]: 0
- Soybean plant response rating [4, 15]: 0
- Plant response rating, Soybean [4, 24]: 0
- Plant response rating, Soybean [4, 10]: 2
